Measured values from patent US20070026408A1, “Materials and methods for analysis of atp-binding cassette transporter gene expression” (priority 2003, published 2007).
Where a name gives a salt, the structure may show the parent alone.

What was measured:
Conditions in all cases: HepG2, doxorubicin HCl 25 nM, standard 11
[1] = system: abcG8; experiment: DT1 microarray drug screening, drug-treated HepG2: abcG8; type: cell-based, human
Experimental: (§1) The labelled cDNA target preparation was thawed and the 150 μl added to 850 ul hybridisation buffer (500 mM sodium Phosphate pH 6.0, 1% SDS, 1% BSA, 1 mM EDTA) in a 1.5 ml microtube and heated at 95° C. for 10 min.

[2] = system: abcA1; experiment: DT1 microarray drug screening, drug-treated HepG2: abcA1; type: cell-based, human
Experimental: as §1

[3] = system: abcG2; experiment: DT1 microarray drug screening, drug-treated HepG2: abcG2; type: cell-based, human
Experimental: as §1

[4] = system: abcG4; experiment: DT1 microarray drug screening, drug-treated HepG2: abcG4; type: cell-based, human
Experimental: as §1

[5] = system: abcA10; experiment: DT1 microarray drug screening, drug-treated HepG2: abcA10; type: cell-based, human
Experimental: as §1

[6] = system: abcC12; experiment: DT1 microarray drug screening, drug-treated HepG2: abcC12; type: cell-based, human
Experimental: as §1

[7] = system: abcD2; experiment: DT1 microarray drug screening, drug-treated HepG2: abcD2; type: cell-based, human
Experimental: as §1

[8] = system: abcA7; experiment: DT1 microarray drug screening, drug-treated HepG2: abcA7; type: cell-based, human
Experimental: as §1

[9] = system: abcC4; experiment: DT1 microarray drug screening, drug-treated HepG2: abcC4; type: cell-based, human
Experimental: as §1

[10] = system: abcC7; experiment: DT1 microarray drug screening, drug-treated HepG2: abcC7; type: cell-based, human
Experimental: as §1

[11] = system: abcB7; experiment: DT1 microarray drug screening, drug-treated HepG2: abcB7; type: cell-based, human
Experimental: as §1

[12] = system: abcB4; experiment: DT1 microarray drug screening, drug-treated HepG2: abcB4; type: cell-based, human
Experimental: as §1

[13] = system: abcB9; experiment: DT1 microarray drug screening, drug-treated HepG2: abcB9; type: cell-based, human
Experimental: as §1

[14] = system: abcA6; experiment: DT1 microarray drug screening, drug-treated HepG2: abcA6; type: cell-based, human
Experimental: as §1

[15] = system: abcC10; experiment: DT1 microarray drug screening, drug-treated HepG2: abcC10; type: cell-based, human
Experimental: as §1

[16] = system: abcB3; experiment: DT1 microarray drug screening, drug-treated HepG2: abcB3; type: cell-based, human
Experimental: as §1

[17] = system: abcC9; experiment: DT1 microarray drug screening, drug-treated HepG2: abcC9; type: cell-based, human
Experimental: as §1

[18] = system: abcB6; experiment: DT1 microarray drug screening, drug-treated HepG2: abcB6; type: cell-based, human
Experimental: as §1

[19] = system: abcA4; experiment: DT1 microarray drug screening, drug-treated HepG2: abcA4; type: cell-based, human
Experimental: as §1

[20] = system: abcA12; experiment: DT1 microarray drug screening, drug-treated HepG2: abcA12; type: cell-based, human
Experimental: as §1

[21] = system: abcC11; experiment: DT1 microarray drug screening, drug-treated HepG2: abcC11; type: cell-based, human
Experimental: as §1

[22] = system: abcF1; experiment: DT1 microarray drug screening, drug-treated HepG2: abcF1; type: cell-based, human
Experimental: as §1

[23] = system: abcC1; experiment: DT1 microarray drug screening, drug-treated HepG2: abcC1
[24] = system: abcD4; experiment: DT1 microarray drug screening, drug-treated HepG2: abcD4; type: cell-based, human
Experimental: as §1

[25] = system: abcA3; experiment: DT1 microarray drug screening, drug-treated HepG2: abcA3; type: cell-based, human
Experimental: as §1

[26] = system: abcC3; experiment: DT1 microarray drug screening, drug-treated HepG2: abcC3; type: cell-based, human
Experimental: as §1

[27] = system: abcB10; experiment: DT1 microarray drug screening, drug-treated HepG2: abcB10
[28] = system: abcC6; experiment: DT1 microarray drug screening, drug-treated HepG2: abcC6; type: cell-based, human
Experimental: as §1

[29] = system: abcB11; experiment: DT1 microarray drug screening, drug-treated HepG2: abcB11; type: cell-based, human
Experimental: as §1

[30] = system: abcA2; experiment: DT1 microarray drug screening, drug-treated HepG2: abcA2; type: cell-based, human
Experimental: as §1

[31] = system: abcG5; experiment: DT1 microarray drug screening, drug-treated HepG2: abcG5; type: cell-based, human
Experimental: as §1

[32] = system: abcC13; experiment: DT1 microarray drug screening, drug-treated HepG2: abcC13; type: cell-based, human
Experimental: as §1

Compound: COc1cccc2c1C(=O)c1c(O)c3c(c(O)c1C2=O)C[C@@](O)(C(=O)CO)C[C@@H]3O[C@H]1C[C@H](N)[C@H](O)[C@H](C)O1 [dox, doxorubicin HCl]
- relative level of abcG8 gene expression ([1]; 2 h): 4.697
- relative level of abcG8 gene expression ([1]; 4 h): 2.811
- relative level of abcG8 gene expression ([1]; 8 h): 2.9413
- relative level of abcA1 gene expression ([2]; 2 h): 3.053
- relative level of abcA1 gene expression ([2]; 4 h): 1.866
- relative level of abcA1 gene expression ([2]; 8 h): 2.346
- relative level of abcG2 gene expression ([3]; 2 h): 2.989
- relative level of abcG2 gene expression ([3]; 4 h): 2.137
- relative level of abcG2 gene expression ([3]; 8 h): 2.08
- relative level of abcG4 gene expression ([4]; 2 h): 9.59
- relative level of abcG4 gene expression ([4]; 4 h): 5.309
- relative level of abcG4 gene expression ([4]; 8 h): 6.271
- relative level of abcA10 gene expression ([5]; 2 h): 4.82
- relative level of abcA10 gene expression ([5]; 4 h): 3.419
- relative level of abcA10 gene expression ([5]; 8 h): 3.793
- relative level of abcC12 gene expression ([6]; 2 h): 5.226
- relative level of abcC12 gene expression ([6]; 4 h): 3.532
- relative level of abcC12 gene expression ([6]; 8 h): 3.976
- relative level of abcD2 gene expression ([7]; 2 h): 2.503
- relative level of abcD2 gene expression ([7]; 4 h): 2.516
- relative level of abcD2 gene expression ([7]; 8 h): 2.409
- relative level of abcA7 gene expression ([8]; 2 h): 1.842
- relative level of abcA7 gene expression ([8]; 4 h): 0.933
- relative level of abcA7 gene expression ([8]; 8 h): 0.9351
- relative level of abcC4 gene expression ([9]; 2 h): 2.612
- relative level of abcC4 gene expression ([9]; 4 h): 2.09
- relative level of abcC4 gene expression ([9]; 8 h): 2.286
- relative level of abcC7 gene expression ([10]; 2 h): 7.481
- relative level of abcC7 gene expression ([10]; 4 h): 4.5794
- relative level of abcC7 gene expression ([10]; 8 h): 5.093
- relative level of abcB7 gene expression ([11]; 2 h): 0.2622
- relative level of abcB7 gene expression ([11]; 4 h): 0.1619
- relative level of abcB7 gene expression ([11]; 8 h): 0.1766
- relative level of abcB4 gene expression ([12]; 2 h): 9.148
- relative level of abcB4 gene expression ([12]; 4 h): 5.624
- relative level of abcB4 gene expression ([12]; 8 h): 6.417
- relative level of abcB9 gene expression ([13]; 2 h): 8.388
- relative level of abcB9 gene expression ([13]; 4 h): 4.897
- relative level of abcB9 gene expression ([13]; 8 h): 5.523
- relative level of abcA6 gene expression ([14]; 2 h): 6.045
- relative level of abcA6 gene expression ([14]; 4 h): 3.367
- relative level of abcA6 gene expression ([14]; 8 h): 4.296
- relative level of abcC10 gene expression ([15]; 2 h): 5.151
- relative level of abcC10 gene expression ([15]; 4 h): 3.335
- relative level of abcC10 gene expression ([15]; 8 h): 3.633
- relative level of abcB3 gene expression ([16]; 2 h): 6.838
- relative level of abcB3 gene expression ([16]; 4 h): 4.325
- relative level of abcB3 gene expression ([16]; 8 h): 4.813
- relative level of abcC9 gene expression ([17]; 2 h): 5.598
- relative level of abcC9 gene expression ([17]; 4 h): 3.678
- relative level of abcC9 gene expression ([17]; 8 h): 3.982
- relative level of abcB6 gene expression ([18]; 2 h): 5.174
- relative level of abcB6 gene expression ([18]; 4 h): 3.283
- relative level of abcB6 gene expression ([18]; 8 h): 3.612
- relative level of abcA4 gene expression ([19]; 2 h): 8.765
- relative level of abcA4 gene expression ([19]; 4 h): 4.535
- relative level of abcA4 gene expression ([19]; 8 h): 6.099
- relative level of abcA12 gene expression ([20]; 2 h): 5.829
- relative level of abcA12 gene expression ([20]; 4 h): 3.419
- relative level of abcA12 gene expression ([20]; 8 h): 4.195
- relative level of abcC11 gene expression ([21]; 2 h): 7.608
- relative level of abcC11 gene expression ([21]; 4 h): 4.384
- relative level of abcC11 gene expression ([21]; 8 h): 5.056
- relative level of abcF1 gene expression ([22]; 2 h): 2.485
- relative level of abcF1 gene expression ([22]; 4 h): 2.87
- relative level of abcF1 gene expression ([22]; 8 h): 2.662
- relative level of abcC1 gene expression ([23]; 2 h): 7.005
- relative level of abcC1 gene expression ([23]; 4 h): 4.767
- relative level of abcC1 gene expression ([23]; 8 h): 5.056
- relative level of abcD4 gene expression ([24]; 2 h): 4.361
- relative level of abcD4 gene expression ([24]; 4 h): 3.103
- relative level of abcD4 gene expression ([24]; 8 h): 3.194
- relative level of abcA3 gene expression ([25]; 2 h): 8.071
- relative level of abcA3 gene expression ([25]; 4 h): 4.291
- relative level of abcA3 gene expression ([25]; 8 h): 5.179
- relative level of abcC3 gene expression ([26]; 2 h): 7.156
- relative level of abcC3 gene expression ([26]; 4 h): 4.014
- relative level of abcC3 gene expression ([26]; 8 h): 4.2
- relative level of abcB10 gene expression ([27]; 2 h): 2.116
- relative level of abcB10 gene expression ([27]; 4 h): 1.484
- relative level of abcB10 gene expression ([27]; 8 h): 1.542
- relative level of abcC6 gene expression ([28]; 2 h): 7.696
- relative level of abcC6 gene expression ([28]; 4 h): 4.516
- relative level of abcC6 gene expression ([28]; 8 h): 4.899
- relative level of abcB11 gene expression ([29]; 2 h): 5.31
- relative level of abcB11 gene expression ([29]; 4 h): 3.404
- relative level of abcB11 gene expression ([29]; 8 h): 3.888
- relative level of abcA2 gene expression ([30]; 2 h): 6.224
- relative level of abcA2 gene expression ([30]; 4 h): 2.947
- relative level of abcA2 gene expression ([30]; 8 h): 4.022
- relative level of abcG5 gene expression ([31]; 2 h): 2.201
- relative level of abcG5 gene expression ([31]; 4 h): 1.764
- relative level of abcG5 gene expression ([31]; 8 h): 1.752
- relative level of abcC13 gene expression ([32]; 2 h): 3.203
- relative level of abcC13 gene expression ([32]; 4 h): 2.548
- relative level of abcC13 gene expression ([32]; 8 h): 2.593
